Test results from ChEMBL document CHEMBL5543112, “Discovery of CBPD-268 as an Exceptionally Potent and Orally Efficacious CBP/p300 PROTAC Degrader Capable of Achieving Tumor Regression” (J Med Chem, 2024).

Tests used:
Cytochrome P450 1A2 = molecular target: T1, Cytochrome P450 1A2 (Homo sapiens, UniProt P05177); assay: Inhibition of CYP1A2 (unknown origin) preincubated with compound for 5 mins followed by NADPH addition and measured after 5 mins by LC-MS/MS analysis; assay type: ADME
T1 sequence (P05177 whole entry): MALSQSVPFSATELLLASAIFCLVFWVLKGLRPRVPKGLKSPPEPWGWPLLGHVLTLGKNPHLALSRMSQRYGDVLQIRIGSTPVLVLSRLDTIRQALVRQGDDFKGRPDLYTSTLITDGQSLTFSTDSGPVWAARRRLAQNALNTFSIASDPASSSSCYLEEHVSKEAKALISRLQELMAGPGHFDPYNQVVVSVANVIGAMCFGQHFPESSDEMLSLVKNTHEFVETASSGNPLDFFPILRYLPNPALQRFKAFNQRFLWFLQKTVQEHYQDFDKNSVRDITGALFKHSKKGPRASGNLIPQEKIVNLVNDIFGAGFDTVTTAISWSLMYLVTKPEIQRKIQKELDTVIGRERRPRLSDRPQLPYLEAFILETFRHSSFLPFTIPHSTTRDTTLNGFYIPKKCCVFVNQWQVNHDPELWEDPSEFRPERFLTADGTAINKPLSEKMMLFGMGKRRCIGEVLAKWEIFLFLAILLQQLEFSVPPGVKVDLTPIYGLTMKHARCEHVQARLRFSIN

[1] = Drug distribution in SCID mouse spleen at 1 mg/kg, po measured at 24 hrs by LC-MS/MS analysis; assay type: ADME, organism-based; settings: read-out: Ct
[2] = Drug distribution in SCID mouse liver at 1 mg/kg, po measured at 24 hrs by LC-MS/MS analysis; assay type: ADME, organism-based; settings: read-out: Ct
[3] = Drug concentration in SCID mouse tumor at 1 mg/kg, po measured at 6 hrs by LC-MS/MS analysis; assay type: ADME, organism-based, Neoplasm; settings: read-out: Ct
[4] = Toxicity in immune-competent Sprague-Dawley rat assessed as change in eosinophil at 1 to 10 mg/kg, po administered twice a week for 5 weeks; assay type: organism-based; settings: in vivo, 840 h, dose 1-10 mg/kg
[5] = Oral bioavailability in ICR mouse at 3 mg/kg measured upto 24 hrs by LC/MS-MS analysis; assay type: ADME, organism-based; settings: in vivo
[6] = Half life in ICR mouse at 1 mg/kg, iv measured upto 24 hrs by LC/MS-MS analysis; assay type: ADME, organism-based; settings: in vivo
CWR22R = assay: Antitumor activity against human 22Rv1 cells xenografted in SCID mouse assessed as tumor growth inhibition at 1 mg/kg, po administered 3 times a week for 3 weeks; assay type: functional; settings: 22Rv1, 504 h, read-out: TGI
[7] = Cmax in Sprague-Dawley rat at 3 mg/kg, po measured upto 24 hrs by LC/MS-MS analysis; assay type: ADME, organism-based; settings: in vivo
[8] = Clearance in Sprague-Dawley rat at 1 mg/kg, iv measured upto 24 hrs by LC/MS-MS analysis; assay type: ADME, organism-based; settings: in vivo
[9] = Drug distribution in SCID mouse plasma at 1 mg/kg, po measured at 1 hr by LC-MS/MS analysis; assay type: ADME, organism-based
[10] = Drug distribution in Sprague-Dawley rat liver at 3 mg/kg, po measured at 1 hr by LC-MS/MS analysis; assay type: ADME, organism-based; settings: read-out: Ct
[11] = Drug distribution in SCID mouse plasma at 0.3 mg/kg, po measured at 6 hrs by LC-MS/MS analysis; assay type: ADME, organism-based
[12] = molecular target: Voltage-gated inwardly rectifying potassium channel KCNH2 (Homo sapiens, UniProt Q12809); assay: Inhibition of hERG expressed in HEK293 cells; assay type: toxicity, cell-based
Sequence of Voltage-gated inwardly rectifying potassium channel KCNH2 (Q12809 whole entry): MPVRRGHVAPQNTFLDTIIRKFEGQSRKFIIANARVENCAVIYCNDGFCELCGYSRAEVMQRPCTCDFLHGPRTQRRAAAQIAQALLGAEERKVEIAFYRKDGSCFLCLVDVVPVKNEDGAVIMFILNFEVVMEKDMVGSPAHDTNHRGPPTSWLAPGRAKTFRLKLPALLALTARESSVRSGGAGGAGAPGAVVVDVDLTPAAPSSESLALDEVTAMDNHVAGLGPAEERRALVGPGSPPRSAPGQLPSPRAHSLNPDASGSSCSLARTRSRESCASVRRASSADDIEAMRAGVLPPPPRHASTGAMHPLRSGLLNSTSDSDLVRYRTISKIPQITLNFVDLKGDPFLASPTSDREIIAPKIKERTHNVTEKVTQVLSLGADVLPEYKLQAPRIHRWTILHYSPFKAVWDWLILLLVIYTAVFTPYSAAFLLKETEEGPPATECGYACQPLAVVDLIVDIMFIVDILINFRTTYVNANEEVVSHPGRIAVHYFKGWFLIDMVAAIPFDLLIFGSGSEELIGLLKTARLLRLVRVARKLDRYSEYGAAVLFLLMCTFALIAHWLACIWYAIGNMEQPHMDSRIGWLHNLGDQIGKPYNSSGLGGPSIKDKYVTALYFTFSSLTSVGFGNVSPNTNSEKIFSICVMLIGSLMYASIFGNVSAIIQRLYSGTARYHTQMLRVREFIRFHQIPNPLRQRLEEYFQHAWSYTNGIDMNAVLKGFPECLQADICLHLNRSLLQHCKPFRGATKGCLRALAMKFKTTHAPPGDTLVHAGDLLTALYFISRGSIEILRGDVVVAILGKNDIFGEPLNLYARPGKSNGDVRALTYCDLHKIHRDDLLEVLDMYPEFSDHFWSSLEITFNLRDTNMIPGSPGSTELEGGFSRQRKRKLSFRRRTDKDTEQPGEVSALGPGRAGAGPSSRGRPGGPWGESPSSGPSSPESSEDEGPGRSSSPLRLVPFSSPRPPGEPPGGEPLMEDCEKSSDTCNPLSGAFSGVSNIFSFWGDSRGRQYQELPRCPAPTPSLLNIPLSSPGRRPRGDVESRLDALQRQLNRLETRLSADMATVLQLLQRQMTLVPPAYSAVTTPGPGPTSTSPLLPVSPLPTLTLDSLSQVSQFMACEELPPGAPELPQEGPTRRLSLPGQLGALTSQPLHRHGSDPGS

[13] = Drug distribution in SCID mouse plasma at 3 mg/kg, po measured at 6 hrs by LC-MS/MS analysis; assay type: ADME, organism-based
[14] = Toxicity in immune-competent Sprague-Dawley rat assessed as change in platelet count at 1 to 10 mg/kg, po administered twice a week for 5 weeks; assay type: organism-based; settings: in vivo, 840 h, dose 1-10 mg/kg
[15] = Drug distribution in SCID mouse spleen at 0.3 mg/kg, po measured at 1 hr by LC-MS/MS analysis; assay type: ADME, organism-based; settings: read-out: Ct
[16] = Drug distribution in SCID mouse tumor at 0.3 mg/kg, po measured at 6 hrs by LC-MS/MS analysis; assay type: ADME, organism-based, Neoplasm; settings: read-out: Ct
[17] = Drug distribution in SCID mouse tumor at 1 mg/kg, po measured at 6 hrs by LC-MS/MS analysis; assay type: ADME, organism-based, Neoplasm; settings: read-out: Ct
[18] = Metabolic stability in rat liver microsome assessed as half life measured upto 60 mins in presence of NADPH by LC-MS/MS analysis; assay type: ADME; settings: liver microsomes
[19] = Plasma protein binding in human by LC-MS analysis; assay type: ADME, cell-free; settings: read-out: PPB (converted)
[20] = Drug distribution in SCID mouse spleen at 1 mg/kg, po measured at 1 hr by LC-MS/MS analysis; assay type: ADME, organism-based; settings: read-out: Ct
[21] = Toxicity in immune-competent Sprague-Dawley rat assessed as change in albumin level at 1 to 10 mg/kg, po administered twice a week for 5 weeks; assay type: organism-based; settings: in vivo, 840 h, dose 1-10 mg/kg
[22] = Drug distribution in SCID mouse plasma at 3 mg/kg, po measured at 24 hrs by LC-MS/MS analysis; assay type: ADME, organism-based
[23] = Drug distribution in SCID mouse tumor at 3 mg/kg, po measured at 1 hr by LC-MS/MS analysis; assay type: ADME, organism-based, Neoplasm; settings: read-out: Ct
VCaP = assay: Antitumor activity against human VCaP cells xenografted in SCID mouse assessed as tumor regression at 1 mg/kg, po administered 3 times a week for 4 weeks; assay type: functional
Cytochrome P450 3A4 = Cytochrome P450 3A4 (Homo sapiens, UniProt P08684); assay: Inhibition of CYP3A4 (unknown origin) using testosterone as substrate preincubated with compound for 5 mins followed by NADPH addition and measured after 20 mins by LC-MS/MS analysis; assay type: ADME
Sequence of Cytochrome P450 3A4 (P08684 whole entry): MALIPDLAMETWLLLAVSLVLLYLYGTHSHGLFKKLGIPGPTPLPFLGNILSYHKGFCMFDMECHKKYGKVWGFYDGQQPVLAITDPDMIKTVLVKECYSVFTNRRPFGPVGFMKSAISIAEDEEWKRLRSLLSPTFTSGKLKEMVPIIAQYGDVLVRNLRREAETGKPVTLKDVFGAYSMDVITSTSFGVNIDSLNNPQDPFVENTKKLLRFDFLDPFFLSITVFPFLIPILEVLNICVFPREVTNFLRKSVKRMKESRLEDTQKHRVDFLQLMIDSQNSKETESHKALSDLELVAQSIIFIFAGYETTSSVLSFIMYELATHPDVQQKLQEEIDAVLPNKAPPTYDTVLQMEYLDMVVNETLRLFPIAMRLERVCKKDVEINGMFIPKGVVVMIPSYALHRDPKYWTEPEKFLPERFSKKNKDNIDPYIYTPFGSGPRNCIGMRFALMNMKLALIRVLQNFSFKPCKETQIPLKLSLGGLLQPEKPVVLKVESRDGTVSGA

[24] = Drug distribution in Sprague-Dawley rat spleen at 10 mg/kg, po measured at 1 hr by LC-MS/MS analysis; assay type: ADME, organism-based; settings: read-out: Ct
[25] = Cmax in ICR mouse at 3 mg/kg, po measured upto 24 hrs by LC/MS-MS analysis; assay type: ADME, organism-based; settings: in vivo
[26] = molecular target: Protein cereblon/Histone lysine acetyltransferase CREBBP (Rattus norvegicus, UniProt Q56AP7+Q6JHU9); assay: PROTAC activity at CBP/CRBN in rat RG2 cells assessed as induction of CBP degradation; assay type: cell-based
Sequence of Protein cereblon/Histone lysine acetyltransferase CREBBP (Q56AP7 whole entry): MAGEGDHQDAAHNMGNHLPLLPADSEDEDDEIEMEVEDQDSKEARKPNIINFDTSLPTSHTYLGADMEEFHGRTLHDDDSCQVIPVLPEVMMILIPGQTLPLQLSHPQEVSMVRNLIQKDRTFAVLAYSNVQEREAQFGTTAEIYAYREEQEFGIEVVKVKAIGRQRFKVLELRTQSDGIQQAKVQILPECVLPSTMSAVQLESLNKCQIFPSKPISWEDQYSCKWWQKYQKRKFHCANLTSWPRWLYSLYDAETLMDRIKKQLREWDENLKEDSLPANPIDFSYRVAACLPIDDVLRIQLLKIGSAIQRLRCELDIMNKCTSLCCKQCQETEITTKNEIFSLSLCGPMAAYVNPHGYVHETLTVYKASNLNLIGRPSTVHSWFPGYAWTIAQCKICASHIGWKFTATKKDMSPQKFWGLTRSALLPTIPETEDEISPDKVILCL
Sequence of Protein cereblon/Histone lysine acetyltransferase CREBBP (Q6JHU9 whole entry): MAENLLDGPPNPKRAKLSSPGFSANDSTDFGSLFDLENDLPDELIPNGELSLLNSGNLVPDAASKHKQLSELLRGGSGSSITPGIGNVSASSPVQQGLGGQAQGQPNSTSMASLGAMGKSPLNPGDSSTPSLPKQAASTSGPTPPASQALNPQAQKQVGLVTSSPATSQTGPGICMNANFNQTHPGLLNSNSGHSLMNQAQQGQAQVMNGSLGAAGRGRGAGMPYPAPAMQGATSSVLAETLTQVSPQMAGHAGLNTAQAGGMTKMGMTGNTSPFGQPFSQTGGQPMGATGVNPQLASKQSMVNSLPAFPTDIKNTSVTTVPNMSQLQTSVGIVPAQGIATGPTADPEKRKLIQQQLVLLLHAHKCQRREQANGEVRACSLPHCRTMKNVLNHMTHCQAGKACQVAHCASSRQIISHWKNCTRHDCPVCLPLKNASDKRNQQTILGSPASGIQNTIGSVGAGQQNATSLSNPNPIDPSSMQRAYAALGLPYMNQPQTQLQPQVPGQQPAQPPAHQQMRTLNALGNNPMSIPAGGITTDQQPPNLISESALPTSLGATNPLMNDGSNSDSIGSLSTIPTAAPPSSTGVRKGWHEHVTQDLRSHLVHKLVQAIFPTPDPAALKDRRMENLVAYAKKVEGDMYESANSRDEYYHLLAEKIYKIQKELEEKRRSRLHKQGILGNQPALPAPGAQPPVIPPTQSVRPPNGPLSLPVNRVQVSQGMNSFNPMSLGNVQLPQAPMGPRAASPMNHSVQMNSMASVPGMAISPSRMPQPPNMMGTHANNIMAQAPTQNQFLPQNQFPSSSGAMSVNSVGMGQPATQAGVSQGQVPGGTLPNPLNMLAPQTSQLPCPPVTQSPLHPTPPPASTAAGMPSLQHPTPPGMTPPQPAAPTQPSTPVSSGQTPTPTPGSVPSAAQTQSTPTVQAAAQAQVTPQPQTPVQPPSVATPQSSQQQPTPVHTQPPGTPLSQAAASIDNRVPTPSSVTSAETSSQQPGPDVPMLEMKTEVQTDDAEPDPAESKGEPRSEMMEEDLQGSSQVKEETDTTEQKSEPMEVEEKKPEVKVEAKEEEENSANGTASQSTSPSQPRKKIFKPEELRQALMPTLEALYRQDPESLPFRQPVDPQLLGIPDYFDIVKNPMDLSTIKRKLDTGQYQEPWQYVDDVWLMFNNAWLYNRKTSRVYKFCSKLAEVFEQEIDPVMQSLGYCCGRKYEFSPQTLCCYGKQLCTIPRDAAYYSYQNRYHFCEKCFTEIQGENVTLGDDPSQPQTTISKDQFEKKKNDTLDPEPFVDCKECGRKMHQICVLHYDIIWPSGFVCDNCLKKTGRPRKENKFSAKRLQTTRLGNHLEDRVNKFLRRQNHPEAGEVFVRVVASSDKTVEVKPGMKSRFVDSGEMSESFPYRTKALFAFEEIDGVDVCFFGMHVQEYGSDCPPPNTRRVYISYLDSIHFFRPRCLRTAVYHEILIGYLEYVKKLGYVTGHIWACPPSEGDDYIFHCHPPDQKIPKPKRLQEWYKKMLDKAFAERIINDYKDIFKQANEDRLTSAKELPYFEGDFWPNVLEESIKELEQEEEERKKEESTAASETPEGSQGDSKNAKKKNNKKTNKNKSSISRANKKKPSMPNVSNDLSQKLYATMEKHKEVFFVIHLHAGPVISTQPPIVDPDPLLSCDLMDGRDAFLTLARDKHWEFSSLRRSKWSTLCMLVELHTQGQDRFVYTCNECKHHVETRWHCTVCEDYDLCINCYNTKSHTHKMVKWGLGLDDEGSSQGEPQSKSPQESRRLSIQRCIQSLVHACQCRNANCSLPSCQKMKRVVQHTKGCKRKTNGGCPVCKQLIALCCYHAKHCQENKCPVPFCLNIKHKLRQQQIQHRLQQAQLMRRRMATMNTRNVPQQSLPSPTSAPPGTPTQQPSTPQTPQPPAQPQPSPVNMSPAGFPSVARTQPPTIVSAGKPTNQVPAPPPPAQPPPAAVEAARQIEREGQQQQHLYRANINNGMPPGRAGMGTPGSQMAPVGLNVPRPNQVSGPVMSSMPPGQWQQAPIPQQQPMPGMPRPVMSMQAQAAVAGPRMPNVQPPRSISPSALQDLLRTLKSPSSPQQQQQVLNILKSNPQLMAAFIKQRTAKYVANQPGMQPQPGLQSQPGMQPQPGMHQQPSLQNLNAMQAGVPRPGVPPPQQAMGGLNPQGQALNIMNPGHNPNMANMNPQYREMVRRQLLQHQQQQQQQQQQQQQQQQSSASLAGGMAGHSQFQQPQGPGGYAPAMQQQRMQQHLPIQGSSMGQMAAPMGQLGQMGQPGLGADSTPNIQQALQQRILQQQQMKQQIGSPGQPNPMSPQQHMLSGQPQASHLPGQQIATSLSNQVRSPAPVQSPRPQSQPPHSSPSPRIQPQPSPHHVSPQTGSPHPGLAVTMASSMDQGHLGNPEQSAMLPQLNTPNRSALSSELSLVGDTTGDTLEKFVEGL

[27] = Toxicity in immune-competent Sprague-Dawley rat assessed as change in red blood cells count at 1 to 10 mg/kg, po administered twice a week for 5 weeks; assay type: organism-based; settings: in vivo, 840 h, dose 1-10 mg/kg
[28] = Toxicity in immune-competent Sprague-Dawley rat assessed as change in total bilirubin level at 1 to 10 mg/kg, po administered twice a week for 5 weeks; assay type: organism-based; settings: in vivo, 840 h, dose 1-10 mg/kg
[29] = Drug distribution in SCID mouse liver at 0.3 mg/kg, po measured at 1 hr by LC-MS/MS analysis; assay type: ADME, organism-based; settings: read-out: Ct
[30] = Drug distribution in SCID mouse liver at 3 mg/kg, po measured at 24 hrs by LC-MS/MS analysis; assay type: ADME, organism-based; settings: read-out: Ct

IC50 (Cytochrome P450 1A2): > 10 µM
concentration at 24 h [1]: 2.8 ng/mL
concentration at 24 h [2]: 13.7 ng/mL
concentration at 6 h [3]: 12.6 ng/g
bioavailability [5]: 60%
t1/2 [6]: 3.4 h
Cmax [7]: 221 ng/mL
clearance [8]: 34.6 mL/min/kg
concentration at 1 h [9]: 212 ng/mL
concentration at 1 h [10]: 978 ng/g
concentration at 6 h [11]: 12.7 ng/mL
concentration at 6 h [13]: 763 ng/mL
concentration at 1 h [15]: 91 ng/mL
concentration at 6 h [16]: 14.4 ng/g
concentration at 6 h [17]: 64.3 ng/g
half-life [18]: 1.08 h
fraction unbound [19]: 0.009
concentration at 1 h [20]: 146 ng/mL
concentration at 24 h [22]: 12.7 ng/mL
concentration at 1 h [23]: 249 ng/g
IC50 (Cytochrome P450 3A4): > 10 µM
concentration at 1 h [24]: 1990 ng/g
Cmax [25]: 725 ng/mL
DC50 [26]: 0.0001 µM
concentration at 1 h [29]: 323 ng/mL
concentration at 24 h [30]: 61.1 ng/mL
SMILES: CC(=O)N1CCc2c(c(N3CCCc4cc(-c5cnn(C)c5)c(C(F)F)cc43)nn2[C@H]2CC[C@H](CN3Cc4cc5c(cc4C3)C(=O)N(C3CCC(=O)NC3=O)C5=O)CC2)C1 (some centres undefined)
Activity [4]: Non-Toxic
inhibition in vivo at 1 mg/kg (CWR22R): 54%
IC50 [12]: > 30 µM
Activity [14]: Non-Toxic
Activity [21]: Non-Toxic
Activity (VCaP): 31%
Activity [27]: Non-Toxic
Activity [28]: Non-Toxic
